# Measured values published in publication PMC5343874, “High Specific Selectivity and Membrane-Active Mechanism of Synthetic Cationic Hybrid Antimicrobial Peptides Based on the Peptide FV7” (International Journal of Molecular Sciences, 2017).
# No end group written: not given here.
# Legend:
# [1] = system: S. aureus ATCC 29213; assay: Salt and heat sensitivity (MIC); format: cell-based, Staphylococcus aureus; parameters: key to MIC, FeCl3 / MIC, Mix / MIC, Control / MIC, NaCl / MIC, KCl / MIC, NH4Cl / MIC, MgCl2 / MIC, ZnCl2 / MIC, CaCl2: MIC in µM (peptide serial dilutions 0.5–128 µM); MIC, Heat (100 °C): unit not given beside the values; conditions: for MIC, FeCl3: 4 mM FeCl3; for MIC, Mix: mixture medium with all salts in physiological concentrations; for MIC, Heat (100 °C): peptide incubated at 100 °C for 1 h
# Experimental: (§1) Minimum inhibitory concentration (MIC) was determined using the modified standard microtiter dilution method as described previously. The bacteria were incubated overnight at 37 °C, […] at 220 rpm and transferred to new nutrient broth (MHB) until the logarithmic phase of growth. The bacteria were then diluted into 10^5 colony forming units (10^5 CFU/mL) in MHB. The peptides were dissolved and diluted in 0.01% acetic acid and 0.2% bovine serum albumin (BSA). Briefly, serial diluted (0.5–128 µM) peptides were added to sterile 96-well plates in a 50-μL volume of bacteria in MHB mixed with 50 µL. […] The results are expressed as an average of the MICs at least three times.
# (§2) The incubation to test for thermal stability occurred at 100 °C for 1 h. After these treatments, the procedures were the same as described above for the MIC assay.
# [2] = system: E. coli UB1005 inner membrane; assay: Inner membrane permeability (ONPG hydrolysis); format: cell-based, Escherichia coli; conditions: 1× MIC, absorbance 420 nm, 0–30 min
# Experimental: The inner membrane permeability activity against E. coli bacteria was determined by the uptake of ONPG. E. coli UB 1005 cells were cultured to mid-log phase in MHB medium containing 2% lactose at 37 °C, and harvested by centrifugation at 3000× g for 5 min. After washing twice, the cells were diluted to an OD600 of 0.05 with buffer (10 mM PBS, pH 7.4) containing 1.5 mM ONPG. […] The value of OD reflected the ONPG flowing into the cells was measured at 420 nm from 0 to 30 min every two min.
# [3] = system: E. coli ATCC 25922; assay: Salt and heat sensitivity (MIC); format: cell-based, Escherichia coli; parameters: key to MIC, Control / MIC, NaCl / MIC, KCl / MIC, NH4Cl / MIC, MgCl2 / MIC, ZnCl2 / MIC, FeCl3 / MIC, CaCl2 / MIC, Mix: MIC in µM (peptide serial dilutions 0.5–128 µM); MIC, Heat (100 °C): unit not given beside the values; conditions: for MIC, MgCl2: 1 mM MgCl2; for MIC, CaCl2: 2.5 mM CaCl2; for MIC, FeCl3: 4 mM FeCl3; for MIC, KCl: 4.5 mM KCl; for MIC, NH4Cl: 6 mM NH4Cl; for MIC, ZnCl2: 8 mM ZnCl2; for MIC, NaCl: 150 mM NaCl; for MIC, Control: absence of physiological salts; for MIC, Mix: mixture medium with all salts in physiological concentrations; for MIC, Heat (100 °C): peptide incubated at 100 °C for 1 h
# Experimental: as §1, §2
# [4] = system: human red blood cells (hRBC); assay: Hemolytic activity; format: cell-based; conditions: 37 °C; for concentration causing 5% hemolysis (minimal hemolytic concentration, MHC): fresh human erythrocytes in PBS pH 7.4, 1 h, absorbance 570 nm, maximal concentration 128 µM, averages of three independent experiments
# Experimental: The hemolytic activity of the peptides was evaluated by measuring the amount of released hemoglobin by the lysis of erythrocytes. The measurement was as previously described. Human red blood cells (hRBC) were obtained from healthy donors by the ethics committee of the Northeast Agricultural University Hospital. The fresh blood cells were washed 2–3 times in PBS (pH 7.4) and centrifuged at 1000× g for 5 min at 4 °C, then resuspended in PBS. Briefly, 50 μL of hRBC solution was incubated with 50 μL of different concentrations of each peptide dissolved in PBS in a 96-well microtiter plate. After incubation for 1 h at 37 °C, the mixtures were centrifuged at 1000× g for 5 min at 4 °C and then the supernatant was transferred to another 96-well microtiter plate. The release of hemoglobin was monitored by measurement of the absorbance at 570 nm using a multimode microplate reader (SpectraMax M5, Molecular Devices, San Francisco, CA, USA). The concentration causing 5% hemolysis was defined as the minimal hemolytic concentration (MHC). The control samples for 0% and 100% hemolysis consisted of hRBC in PBS (Ablank) only and in 0.1% Triton X-100 (Atriton), respectively. The percent hemolysis was calculated according to the following equation: % Hemolysis = [(Asample − Ablank)/(Atriton − Ablank)] × 100
# [5] = system: B. subtilis CMCC 63501; format: cell-based, Bacillus subtilis
# Experimental: as §1
# (§3) E. coli ATCC 25,922, S. typhimurium ATCC 7731, S. typhimurium ATCC 14028, P. aeruginosa ATCC 27853, B. subtilis CMCC 63501, S. aureus ATCC 29213, S. epidermidis ATCC 12228 and E. faecalis ATCC 29212 were obtained from the College of Veterinary Medicine, Northeast Agricultural University (Harbin, China). E. coli UB1005 was kindly provided by Qingsheng Qi (State Key Laboratory of Microbial Technology, Shandong University, Jinan, China). P. Aeruginosa PAO1 was kindly provided by Wengong Yu (State Key Laboratory of School of Medicine and Pharmacy, Ocean University of China, Qingdao, China).
# [6] = system: S. faecalis ATCC 29212; format: cell-based
# Experimental: as §1, §3
# [7] = system: S. aureus ATCC 29213; format: cell-based, Staphylococcus aureus
# Experimental: as §1, §3
# [8] = system: E. coli ATCC 25922; format: cell-based, Escherichia coli
# Experimental: as §1, §3
# [9] = system: E. coli UB 1005; format: cell-based, Escherichia coli
# Experimental: as §1, §3
# [10] = system: P. aeruginosa PAO1; format: cell-based, Pseudomonas aeruginosa
# Experimental: as §1, §3
# [11] = system: P. aeruginosa ATCC 27853; format: cell-based, Pseudomonas aeruginosa
# Experimental: as §1, §3
# [12] = system: S. epidermidis ATCC12228; format: cell-based, Staphylococcus epidermidis
# Experimental: as §1, §3
# [13] = system: S. typhimurium ATCC 7731; format: cell-based, Salmonella typhimurium
# Experimental: as §1, §3
# [14] = system: S. typhimurium ATCC 14028; format: cell-based, Salmonella typhimurium
# Experimental: as §1, §3
# [15] = system: Gram-negative and Gram-positive bacteria; assay: MIC across the bacterial panel; format: cell-based
# Experimental: as §1, §3
molecule,measurement,setting,value
"CC[C@H](C)[C@H](NC(=O)CN)C(=O)NCC(=O)N[C@@H](C)C(=O)N[C@H](C(=O)N[C@@H](CC(C)C)C(=O)N[C@@H](CCCCN)C(=O)N[C@H](C(=O)N[C@@H](CC(C)C)C(=O)N[C@H](C(=O)N[C@H](C(=O)NCC(=O)N[C@@H](CC(C)C)C(=O)N1CCC[C@H]1C(=O)N[C@@H](C)C(=O)N[C@@H](CC(C)C)C(=O)N[C@H](C(=O)N[C@@H](CO)C(=O)N[C@@H](Cc1c[nH]c2ccccc12)C(=O)N[C@H](C(=O)N[C@@H](CCCCN)C(=O)N[C@@H](CCCNC(=N)N)C(=O)N[C@@H](CCCCN)C(=O)N[C@@H](CCCNC(=N)N)C(=O)N[C@@H](CCC(N)=O)C(=O)N[C@@H](CCC(N)=O)C(N)=O)[C@@H](C)CC)[C@@H](C)CC)[C@@H](C)O)[C@@H](C)O)C(C)C)C(C)C [ME26, melittin]","MIC, MgCl2",[1]; 1 mM MgCl2,2
same,"MIC, CaCl2",[1]; 2.5 mM CaCl2,4
same,"MIC, FeCl3",[1],2
same,"MIC, KCl",[1]; 4.5 mM KCl,4
same,"MIC, NH4Cl",[1]; 6 mM NH4Cl,2
same,"MIC, ZnCl2",[1]; 8 mM ZnCl2,2
same,"MIC, NaCl",[1]; 150 mM NaCl,4
same,"MIC, Control",[1]; absence of physiological salts,8
same,"MIC, Mix",[1],4
same,"MIC, Heat (100 °C)",[1],8
same,"inner membrane permeability (ONPG hydrolysis, in words)",[2],highest ability for inner membrane permeability
same,"MIC, MgCl2",[3],4
same,"MIC, CaCl2",[3],2
same,"MIC, FeCl3",[3],2
same,"MIC, KCl",[3],2
same,"MIC, NH4Cl",[3],2
same,"MIC, ZnCl2",[3],4
same,"MIC, NaCl",[3],4
same,"MIC, Control",[3],2
same,"MIC, Mix",[3],4
same,"MIC, Heat (100 °C)",[3],2
same,concentration giving complete hemolysis,"[4]; human erythrocytes, 1 h",greater than 4 µM
FRIRVRV-NH2 [FV7],MIC,[5],16 µM
same,MIC,[6],32 µM
same,MIC,[7],64 µM
same,MIC,[8],16 µM
same,MIC,[9],32 µM
same,MIC,[10],32 µM
same,MIC,[11],16 µM
same,MIC,[12],32 µM
same,hemolysis,"[4]; at 128 µM, human erythrocytes, 1 h",approximately 15%
same,"concentration causing 5% hemolysis (minimal hemolytic concentration, MHC)",[4],4 µM
same,MIC,[13],32 µM
same,MIC,[14],16 µM
AKKFGKAFVGEIM-NH2 [MA],MIC,[5],>64 µM
same,MIC,[6],>64 µM
same,MIC,[7],>64 µM
same,MIC,[8],32 µM
same,MIC,[9],>64 µM
same,MIC,[10],>64 µM
same,MIC,[11],>64 µM
same,MIC,[12],>64 µM
same,minimum inhibitory concentration,[15],greater than 64 μM
same,MIC,[13],>64 µM
same,MIC,[14],>64 µM
FRIRVRVKWKLFKKI-NH2 [FV-CE],"MIC, FeCl3",[1],4
same,"MIC, Mix",[1],4
same,"MIC, Heat (100 °C)",[1],4
same,MIC,[5],1 µM
same,MIC,[6],1 µM
same,MIC,[7],8 µM
same,MIC,[8],2 µM
same,MIC,[9],2 µM
same,MIC,[10],2 µM
same,MIC,[11],2 µM
same,"MIC, MgCl2",[3],2
same,"MIC, CaCl2",[3],2
same,"MIC, FeCl3",[3],4
same,"MIC, KCl",[3],2
same,"MIC, NH4Cl",[3],2
same,"MIC, ZnCl2",[3],2
same,"MIC, NaCl",[3],2
same,"MIC, Control",[3],2
same,"MIC, Mix",[3],2
same,"MIC, Heat (100 °C)",[3],2
same,MIC,[12],0.5 µM
same,"concentration causing 5% hemolysis (minimal hemolytic concentration, MHC)",[4],> 128 µM
same,MIC,[13],4 µM
same,MIC,[14],4 µM
FKRIVQRIKDFLR-NH2 [LL],MIC,[5],16 µM
same,MIC,[6],32 µM
same,MIC,[7],16 µM
same,MIC,[8],16 µM
same,MIC,[9],16 µM
same,MIC,[10],16 µM
same,MIC,[11],8 µM
same,MIC,[12],8 µM
same,MIC,[13],16 µM
same,MIC,[14],32 µM
FRIRVRVAKKFGKAFVGEIM-NH2 [FV-MA],MIC,[5],4 µM
same,MIC,[6],16 µM
same,MIC,[7],8 µM
same,MIC,[8],8 µM
same,MIC,[9],8 µM
same,MIC,[10],2 µM
same,MIC,[11],8 µM
same,MIC,[12],8 µM
same,hemolytic activity (in words),"[4]; human erythrocytes, 1 h, up to 128 µM",higher hemolytic activity at each concentration when compared to FV7
same,MIC,[13],4 µM
same,MIC,[14],4 µM
KWKLFKKI-NH2 [CE],MIC,[5],>64 µM
same,MIC,[6],>64 µM
same,MIC,[7],>64 µM
same,MIC,[8],64 µM
same,MIC,[9],>64 µM
same,MIC,[10],>64 µM
same,MIC,[11],>64 µM
same,MIC,[12],>64 µM
same,minimum inhibitory concentration,[15],greater than 64 μM
same,MIC,[13],>64 µM
same,MIC,[14],>64 µM
FRIRVRVFKRIVQRIKDFLR-NH2 [FV-LL],MIC,[5],4 µM
same,MIC,[6],4 µM
same,MIC,[7],2 µM
same,MIC,[8],1 µM
same,MIC,[9],4 µM
same,MIC,[10],2 µM
same,MIC,[11],4 µM
same,MIC,[12],1 µM
same,"concentration causing 5% hemolysis (minimal hemolytic concentration, MHC)",[4],> 128 µM
same,MIC,[13],2 µM
same,MIC,[14],2 µM
